{
  "source": "patent US20100284985A1",
  "about": "“Composition” (Danisco A/S, priority 2007, published 2010)",
  "format_in_all_cases": "cell-based",
  "key": {"[1]": {"tested_on": "Brochothrix thermosphacta DCS 780", "assay": "FIC checkerboard assay, LAE with Nisaplin", "procedure": "(§1) The Fractional Inhibition Concentration (FIC) assay is also a 96 well liquid based assay with a checkerboard titration layout (7, 8), one plate for each strain and sets of concentrations. Cultivation media can be seen in Appendix 1. O.D. at 620 nm is read at zero hours (at strain addition) and after a 24-hour incubation period. […] The FICs for the two substances are plotted towards each other in a graph called an isobologram. […] Additionally, the FIC index is then calculated as follows: FICindex=FICA+FICB, if FICindex is lower than 1 there is synergy, if it is higher than one there is antagony and if it is equal to one there is an additive effect.\n(§2) FICs were determined for LAE in combination with Nisaplin and Natamax for strains in Table 1A and B."}, "[2]": {"tested_on": "Listeria monocytogenes DCS 489", "assay": "FIC checkerboard assay, LAE with Nisaplin", "procedure": "as §1, §2"}, "[3]": {"tested_on": "Bacillus licheniformis DCS 561", "assay": "FIC checkerboard assay, LAE with Nisaplin", "procedure": "as §1, §2"}, "[4]": {"tested_on": "Brochothrix thermosphacta DCS 780", "assay": "MIC assay, LAE", "procedure": "(§3) The Minimal Inhibition Concentration Assay (MIC) is a 96 well liquid based assay developed for a semi-automated assessment system and performed essentially as described in (7). […] From an overnight culture […] of each strain was inoculated in one well corresponding to an approximate inoculation density of 10^3-10^4 cells/well. Media used were CASO, MRS and YM (Appendix 1). Strains were incubated at 20° C., 25° C., 37° C. and under aerobic/anaerobic conditions depending on the preferred conditions for the particular strain (Appendix 1). At time zero, after adding the AM, the optical density (O.D.) of the bacterial culture is measured at 620 nm and then again after 24 hours. […] MIC is defined as the lowest concentration of the AM that will inhibit measurable growth. A bacteriostatic effect is defined as the OD620 at 24 h being less than or equal to 20% of the growth control."}, "Listeria innocua DCS 17": {"tested_on": "Listeria innocua DCS 17", "assay": "MIC assay, LAE", "procedure": "as §3"}, "Pichia anomala DCS 603": {"tested_on": "Pichia anomala DCS 603", "assay": "MIC assay, LAE", "procedure": "as §3"}, "[5]": {"tested_on": "Clostridium algidicarnis DCS 563", "assay": "MIC assay, LAE", "procedure": "as §3"}, "Escherichia coli DCS 497": {"tested_on": "Escherichia coli DCS 497", "assay": "MIC assay, LAE", "procedure": "as §3"}, "[6]": {"tested_on": "Clostridium sporogenes (spores) DCS 812sp", "assay": "MIC assay, LAE", "details": "ppm of the active component", "procedure": "as §3"}, "[7]": {"tested_on": "Clostridium sporogenes DCS 812", "assay": "MIC assay, LAE", "procedure": "as §3"}, "[8]": {"tested_on": "Bacillus licheniformis (spores) DCS 561sp", "assay": "MIC assay, LAE", "details": "ppm of the active component", "procedure": "as §3"}, "[9]": {"tested_on": "Bacillus weihenstephanensis DCS 565", "assay": "MIC assay, LAE", "procedure": "as §3"}, "[10]": {"tested_on": "Salmonella typhimurium DCS 223", "assay": "MIC assay, LAE", "details": "ppm of the active component", "procedure": "as §3"}, "[11]": {"tested_on": "Clostridium sporogenes (spores) DCS 808sp", "assay": "MIC assay, LAE", "details": "ppm of the active component", "procedure": "as §3"}, "[12]": {"details": "Brochothrix thermosphacta, DCS780, ppm of the active component"}, "[13]": {"details": "Listeria innocua, DCS17, ppm of the active component"}, "[14]": {"details": "Hansenula anomala, DCS603, ppm of the active component"}, "[15]": {"details": "Clostridium algidicarnis, DCS563, ppm of the active component"}, "[16]": {"details": "Escherichia coli, DCS497, ppm of the active component"}, "[17]": {"details": "Clostridium sporogenes, DCS812, ppm of the active component"}, "[18]": {"details": "Bacillus mycoides, DCS565, ppm of the active component"}, "[19]": {"details": "Salmonella enterica, TYPHIMURIUM"}},
  "data": [
    {"molecule": "CCCCCCCCCCCC(=O)N[C@@H](CCCNC(=N)N)C(=O)OCC.Cl", "note": "[LAE, N^α-Lauroyl-L-arginine ethyl ester monohydrochloride]", "values": [
      {"measurement": "FICLAE", "setting": "[1]; Nisaplin 50 ppm + LAE 33 ppm", "value": 0.67},
      {"measurement": "FICLAE", "setting": "[1]; Nisaplin 90 ppm + LAE 22 ppm", "value": 0.44},
      {"measurement": "FICLAE", "setting": "[1]; Nisaplin 210 ppm + LAE 0 ppm", "value": 0.00},
      {"measurement": "FICLAE", "setting": "[2]; Nisaplin 0 ppm + LAE 50 ppm", "value": 1.00},
      {"measurement": "FICLAE", "setting": "[2]; Nisaplin 50 ppm + LAE 22 ppm", "value": 0.44},
      {"measurement": "FICLAE", "setting": "[2]; Nisaplin 90 ppm + LAE 15 ppm", "value": 0.30},
      {"measurement": "FICLAE", "setting": "[2]; Nisaplin 130 ppm + LAE 5 ppm", "value": 0.09},
      {"measurement": "FICLAE", "setting": "[2]; Nisaplin 170 ppm + LAE 4 ppm", "value": 0.04},
      {"measurement": "FICLAE", "setting": "[2]; Nisaplin 210 ppm + LAE 1 ppm", "value": 0.02},
      {"measurement": "FICLAE", "setting": "[2]; Nisaplin 250 ppm + LAE 0 ppm", "value": 0.00},
      {"measurement": "FICLAE", "setting": "[3]; Nisaplin 50 ppm + LAE 22.2 ppm", "value": 0.44},
      {"measurement": "FICLAE", "setting": "[3]; Nisaplin 130 ppm + LAE 14.8 ppm", "value": 0.30},
      {"measurement": "FICLAE", "setting": "[3]; Nisaplin 210 ppm + LAE 9.9 ppm", "value": 0.20},
      {"measurement": "FICLAE", "setting": "[3]; Nisaplin 250 ppm + LAE 0 ppm", "value": 0.00},
      {"measurement": "MBC", "setting": "[4]; [12]", "value": 9.7, "unit": "µg/mL"},
      {"measurement": "MIC", "setting": "[4]; [12]", "value": 8.1, "unit": "µg/mL"},
      {"measurement": "increased lag phase", "setting": "[4]; ppm of the active component", "value": 4.3, "unit": "ppm"},
      {"measurement": "MBC", "setting": "Listeria innocua DCS 17; [13]", "value": 21.9, "unit": "µg/mL"},
      {"measurement": "MIC", "setting": "Listeria innocua DCS 17; [13]", "value": 12.1, "unit": "µg/mL"},
      {"measurement": "increased lag phase", "setting": "Listeria innocua DCS 17; ppm of the active component", "value": 5.4, "unit": "ppm"},
      {"measurement": "MBC", "setting": "Pichia anomala DCS 603; [14]", "value": 111, "unit": "µg/mL"},
      {"measurement": "MIC", "setting": "Pichia anomala DCS 603; [14]", "value": 73.8, "unit": "µg/mL"},
      {"measurement": "increased lag phase", "setting": "Pichia anomala DCS 603; ppm of the active component", "value": 32.8, "unit": "ppm"},
      {"measurement": "MBC", "setting": "[5]; [15]", "value": 14.9, "unit": "µg/mL"},
      {"measurement": "MIC", "setting": "[5]; [15]", "value": 9.7, "unit": "µg/mL"},
      {"measurement": "increased lag phase", "setting": "[5]; ppm of the active component", "value": 6.5, "unit": "ppm"},
      {"measurement": "MBC", "setting": "Escherichia coli DCS 497; [16]", "value": 21.9, "unit": "µg/mL"},
      {"measurement": "MIC", "setting": "Escherichia coli DCS 497; [16]", "value": 21.9, "unit": "µg/mL"},
      {"measurement": "increased lag phase", "setting": "Escherichia coli DCS 497; ppm of the active component", "value": 18.2, "unit": "ppm"},
      {"measurement": "MBC", "setting": "[6]; Clostridium sporogenes", "value": 8.1, "unit": "µg/mL"},
      {"measurement": "MIC", "setting": "[6]; Clostridium sporogenes", "value": 4.3, "unit": "µg/mL"},
      {"measurement": "increased lag phase", "setting": "[6]", "value": 4.3, "unit": "ppm"},
      {"measurement": "MBC", "setting": "[7]; [17]", "value": 9.7, "unit": "µg/mL"},
      {"measurement": "MIC", "setting": "[7]; [17]", "value": 9.7, "unit": "µg/mL"},
      {"measurement": "increased lag phase", "setting": "[7]; ppm of the active component", "value": 9.7, "unit": "ppm"},
      {"measurement": "MBC", "setting": "[8]; Bacillus licheniformis", "value": 61.5, "unit": "µg/mL"},
      {"measurement": "MIC", "setting": "[8]; Bacillus licheniformis", "value": 6.5, "unit": "µg/mL"},
      {"measurement": "increased lag phase", "setting": "[8]", "value": 6.5, "unit": "ppm"},
      {"measurement": "MBC", "setting": "[9]; [18]", "value": 14.6, "unit": "µg/mL"},
      {"measurement": "MIC", "setting": "[9]; [18]", "value": 14.6, "unit": "µg/mL"},
      {"measurement": "increased lag phase", "setting": "[9]; ppm of the active component", "value": 10.5, "unit": "ppm"},
      {"measurement": "MBC", "setting": "[10]; [19]", "value": 32.8, "unit": "µg/mL"},
      {"measurement": "MIC", "setting": "[10]; [19]", "value": 21.9, "unit": "µg/mL"},
      {"measurement": "increased lag phase", "setting": "[10]", "value": 14.6, "unit": "ppm"},
      {"measurement": "MBC", "setting": "[11]; Clostridium sporogenes", "value": 18.3, "unit": "µg/mL"},
      {"measurement": "MIC", "setting": "[11]; Clostridium sporogenes", "value": 8.1, "unit": "µg/mL"},
      {"measurement": "increased lag phase", "setting": "[11]", "value": 8.1, "unit": "ppm"}
    ]}
  ]
}
